system: HBV; assay: HBV-DNA antiviral assay using HepG2.117 cells; assay type: cell-based, genotype D HBV; conditions: Hepatitis B virus, 72 h, intracellular HBV DNA by qPCR, 3 days incubation
Method in brief: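 HepG2.117 cells (genotype D HBV, Tet-off) seeded without doxycycline and treated for 3 days at 9 concentrations (4-fold dilutions) in 2% DMSO. Intracellular HBV DNA measured by qPCR against a standard curve, with viability from ATPlite run in parallel. EC50, EC90 and CC50 fitted relative to DMSO controls.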

Q: `NC(=O)c1ccc(-n2c(=O)c3c(n4ncc(Cc5ccccc5)c24)CN(C(=O)c2ccc(Br)c(Cl)c2)CC3)cc1` [Compound 75, 4-[5-benzyl-12-(4-bromo-3-chloro-benzoyl)-8-oxo-2,3,7,12-tetrazatricyclo [7.4.0.0 2,6]trideca-1(9),3,5-trien-7-yl] benzamide] was tested. Which EC50 did it give?
A: 0.5 to 5 µM

Q: Which EC50 does the source give for `CNC(=O)c1ccc(-n2c(=O)c3c(n4ncc(NCc5ccc(OC(F)F)cc5)c24)CN(C(=O)c2ccc(Cl)c(Cl)c2)CC3)cc1` [Compound 41, 4-[12-(3,4-dichlorobenzoyl)-5-[[4-(difluoromethoxy)phenyl]methylamino]-8-oxo-2,3,7,12-tetrazatricyclo [7.4.0.0 2,6]trideca-1(9),3,5-trien-7-yl]-N-methyl-benzamide] here?
A: 0.5 to 5 µM

Q: How did the EC50 turn out when `O=C(NCc1ccccc1)c1cnn2c3c(c(=O)n(-c4ccccc4)c12)CCN(C(=O)c1ccc(Cl)c(Cl)c1)C3` [Compound 20, N-benzyl-12-(3,4-dichlorobenzoyl)-8-oxo-7-phenyl-2,3,7,12-tetrazatricyclo [7.4.0.0^2,6] trideca-1(9),3,5-triene-5-carboxamide] was run?
A: > 5 µM

Q: Which EC50 does the source give for `O=C(NC1CC1)c1ccc(-n2c(=O)c3c(n4ncc(Cc5ccccc5)c24)CN(C(=O)c2ccc(Br)c(Cl)c2)CC3)cc1` [Compound 68, 4-[5-benzyl-12-(4-bromo-3-chloro-benzoyl)-8-oxo-2,3,7,12-tetrazatricyclo [7.4.0.0 2,6]trideca-1(9),3,5-trien-7-yl]-N-cyclopropyl-benzamide] here?
A: > 5 µM

Q: `CNC(=O)c1ccc(-n2c(=O)c3c(n4ncc(Nc5ccc(F)cc5)c24)CN(C(=O)c2ccc(Br)c(C#N)c2)CC3)cc1` [Compound 63, 4-[12-(4-bromo-3-cyano-benzoyl)-5-(4-fluoroanilino)-8-oxo-2,3,7,12-tetrazatricyclo [7.4.0.0 2,6]trideca-1(9),3,5-trien-7-yl]-N-methyl-benzamide] was tested. Which EC50 did it give?
A: 0.1 to 0.5 µM

Q: How did the EC50 turn out when `COc1ccc(-n2c(=O)c3c(n4ncc(NC(=O)c5ccccc5)c24)CN(C(=O)c2ccc(Br)c(Cl)c2)CC3)cc1` [Compound 30, N-[12-(4-bromo-3-chloro-benzoyl)-7-(4-methoxyphenyl)-8-oxo-2,3,7,12-tetrazatricyclo [7.4.0.0 2,6]trideca-1(9),3,5-trien-5-yl] benzamide] was run?
A: 0.1 to 0.5 µM

Q: For `NC(=O)c1ccc(-n2c(=O)c3c(n4ncc(NCc5ccccc5)c24)CN(C(=O)c2ccc(Cl)c(Cl)c2)CC3)cc1` [Compound 50, 4-[5-(benzylamino)-12-(3,4-dichlorobenzoyl)-8-oxo-2,3,7,12-tetrazatricyclo [7.4.0.0 2,6]trideca-1(9),3,5-trien-7-yl] benzamide], which EC50 is on record?
A: ≤ 0.1 µM

Q: How did the EC50 turn out when `CNC(=O)c1ccc(-n2c(=O)c3c(n4ncc(Cc5ccc(F)cc5)c24)CN(C(=O)c2ccc(Br)c(C#N)c2)CC3)cc1` [Compound 60, 4-[12-(4-bromo-3-cyano-benzoyl)-5-[(4-fluorophenyl)methyl]-8-oxo-2,3,7,12-tetrazatricyclo [7.4.0.0 2,6]trideca-1(9),3,5-trien-7-yl]-N-methyl-benzamide] was run?
A: ≤ 0.1 µM

Q: With `CC(C)CNc1cnn2c3c(c(=O)n(-c4ccccc4)c12)CCN(C(=O)c1ccc(Cl)c(Cl)c1)C3` [Compound 15, 12-(3,4-dichlorobenzoyl)-5-(isobutylamino)-7-phenyl-2,3,7,12-tetrazatricyclo [7.4.0.0^2,6] trideca-1(9),3,5-trien-8-one] as the compound, how does the EC50 read?
A: > 5 µM

Q: With `CNC(=O)c1ccc(-n2c(=O)c3c(n4ncc(Cc5ccc(C#N)cc5)c24)CN(C(=O)c2ccc(Br)c(Cl)c2)CC3)cc1` [Compound 43, 4-(8-(4-bromo-3-chlorobenzoyl)-3-(4-cyanobenzyl)-5-oxo-6,7,8,9-tetrahydropyrazolo[1,5-a]pyrido[4,3-e]pyrimidin-4(5H)-yl)-N-methylbenzamide] as the compound, how does the EC50 read?
A: ≤ 0.1 µM

Q: With `CCNC(=O)c1ccc(-n2c(=O)c3c(n4ncc(Cc5ccccc5)c24)CN(C(=O)c2ccc(Br)c(C#N)c2)CC3)cc1` [Compound 62, 4-[5-benzyl-12-(4-bromo-3-cyano-benzoyl)-8-oxo-2,3,7,12-tetrazatricyclo [7.4.0.0 2,6]trideca-1(9),3,5-trien-7-yl]-N-ethyl-benzamide] as the compound, how does the EC50 read?
A: 0.5 to 5 µM

Q: How did the EC50 turn out when `CNC(=O)c1ccc(-n2c(=O)c3c(n4ncc(Cc5ccccc5)c24)CN(C(=O)c2ccc(Br)c(C#N)c2)[C@H](C)C3)cc1` (stereo in doubt) [Compound 81, N-methyl-4-[rac-(11R)-5-benzyl-12-(4-bromo-3-cyano-benzoyl)-11-methyl-8-oxo-2,3,7,12-tetrazatricyclo [7.4.0.0 2,6]trideca-1(9),3,5-trien-7-yl] benzamide] was run?
A: ≤ 0.1 µM

Q: With `COc1ccc(-n2c(=O)c3c(n4ncc(NS(C)(=O)=O)c24)CN(C(=O)c2ccc(Cl)c(Cl)c2)CC3)cc1` [Compound 26, N-[12-(3,4-dichlorobenzoyl)-7-(4-methoxyphenyl)-8-oxo-2,3,7,12-tetrazatricyclo [7.4.0.0 2,6]trideca-1(9),3,5-trien-5-yl] methanesulfonamide] as the compound, how does the EC50 read?
A: 0.5 to 5 µM

Q: Which EC50 does the source give for `CNC(=O)c1ccc(-n2c(=O)c3c(n4ncc(Cc5ccc(OC)cc5F)c24)CN(C(=O)c2ccc(Br)c(C#N)c2)CC3)cc1` [Compound 86, 4-[12-(4-bromo-3-cyano-benzoyl)-5-[(2-fluoro-4-methoxy-phenyl)methyl]-8-oxo-2,3,7,12-tetrazatricyclo [7.4.0.0 2,6]trideca-1(9),3,5-trien-7-yl]-N-methyl-benzamide] here?
A: 0.1 to 0.5 µM

Q: How did the EC50 turn out when `O=C(c1ccc(Br)cc1)N1CCc2c(n3nccc3n(-c3ccccc3)c2=O)C1` [Compound 3, 8-(4-bromobenzoyl)-4-phenyl-6,7,8,9-tetrahydropyrazolo[1,5-a]pyrido[4,3-e]pyrimidin-5(4H)-one] was run?
A: > 5 µM

Q: How did the EC50 turn out when `O=C(c1ccc(Br)c(Cl)c1)N1CCc2c(n3ncc(Cc4ccccc4)c3n(-c3ccc(-c4ncc[nH]4)cc3)c2=O)C1` [Compound 90, 5-benzyl-12-(4-bromo-3-chloro-benzoyl)-7-[4-(1H-imidazol-2-yl)phenyl]-2,3,7,12-tetrazatricyclo [7.4.0.0 2,6] trideca-1(9),3,5-trien-8-one] was run?
A: 0.5 to 5 µM

Q: Which EC50 does the source give for `CNC(=O)c1ccc(-n2c(=O)c3c(n4ncc(NCc5ccc(F)cc5)c24)CN(C(=O)c2ccc(Br)c(Cl)c2)CC3)cc1` [Compound 67, 4-[12-(4-bromo-3-chloro-benzoyl)-5-[(4-fluorophenyl)methylamino]-8-oxo-2,3,7,12-tetrazatricyclo [7.4.0.0 2,6]trideca-1(9),3,5-trien-7-yl]-N-methyl-benzamide] here?
A: ≤ 0.1 µM

Q: For `CNC(=O)c1ccc(-n2c(=O)c3c(n4ncc(NCc5ccc(C#N)cc5)c24)CN(C(=O)c2ccc(Cl)c(Cl)c2)CC3)cc1` [Compound 51, 4-[5-[(4-cyanophenyl)methylamino]-12-(3,4-dichlorobenzoyl)-8-oxo-2,3,7,12-tetrazatricyclo [7.4.0.0 2,6]trideca-1(9),3,5-trien-7-yl]-N-methyl-benzamide], which EC50 is on record?
A: 0.5 to 5 µM

Q: How did the EC50 turn out when `CNC(=O)c1ccc(-n2c(=O)c3c(n4ncc(Cc5ccccc5)c24)CN(C(=O)c2ccc(Br)cn2)CC3)cc1` [Compound 56, 4-[5-benzyl-12-(5-bromopyridine-2-carbonyl)-8-oxo-2,3,7,12-tetrazatricyclo [7.4.0.0 2,6]trideca-1(9),3,5-trien-7-yl]-N-methyl-benzamide] was run?
A: 0.5 to 5 µM

Q: With `COc1cccc(-n2c(=O)c3c(n4ncc(NCc5ccccc5)c24)CN(C(=O)c2ccc(Br)c(Cl)c2)CC3)c1` [Compound 28, 5-(benzylamino)-12-(4-bromo-3-chloro-benzoyl)-7-(3-methoxyphenyl)-2,3,7,12-tetrazatricyclo [7.4.0.0 2,6] trideca-1(9),3,5-trien-8-one] as the compound, how does the EC50 read?
A: 0.1 to 0.5 µM

Q: `CNC(=O)c1ccc(-n2c(=O)c3c(n4ncc(NCc5ccc(OC(F)F)cc5)c24)CN(C(=O)c2ccc(Br)c(Cl)c2)CC3)cc1` [Compound 46, 4-[12-(4-bromo-3-chloro-benzoyl)-5-[[4-(difluoromethoxy)phenyl]methylamino]-8-oxo-2,3,7,12-tetrazatricyclo [7.4.0.0 2,6]trideca-1(9),3,5-trien-7-yl]-N-methyl-benzamide] was tested. Which EC50 did it give?
A: ≤ 0.1 µM

Q: `CNC(=O)c1ccc(-n2c(=O)c3c(n4ncc(NCc5ccc(OC(F)(F)F)cc5)c24)CN(C(=O)c2ccc(Cl)c(Cl)c2)CC3)cc1` [Compound 44, 4-[12-(3,4-dichlorobenzoyl)-8-oxo-5-[[4-(trifluoromethoxy)phenyl]methylamino]-2,3,7,12-tetrazatricyclo [7.4.0.0 2,6]trideca-1(9),3,5-trien-7-yl]-N-methyl-benzamide] was tested. Which EC50 did it give?
A: 0.1 to 0.5 µM

same assay, conditions: intracellular HBV DNA by qPCR, 3 days incubation

Q: `COc1ccc(-n2c(=O)c3c(n4ncc(NC(C)=O)c24)CN(C(=O)c2ccc(Cl)c(Cl)c2)CC3)cc1` [Compound 21, N-[12-(3,4-dichlorobenzoyl)-7-(4-methoxyphenyl)-8-oxo-2,3,7,12-tetrazatricyclo [7.4.0.0^2,6]trideca-1(9),3,5-trien-5-yl]acetamide] was tested. Which EC50 did it give?
A: > 5 µM

Q: For `O=C(c1ccc(Cl)c(Cl)c1)N1CCc2c(n3ncc(NCc4ccccc4)c3n(-c3ccccc3)c2=O)C1` [Compound 18, 5-(benzylamino)-12-(3,4-dichlorobenzoyl)-7-phenyl-2,3,7,12-tetraazatricyclo[7.4.0.0^[2,6]]trideca-1(9),3,5-trien-8-one], which EC50 is on record?
A: 0.5 to 5 µM

Q: For `O=C(c1ccc(Br)c(Cl)c1)N1CCc2c(n3nccc3n(Cc3ccccc3)c2=O)C1` [Compound 6, 7-benzyl-12-(4-bromo-3-chlorobenzoyl)-2,3,7,12-tetraazatricyclo[7.4.0.0^[2,6]]trideca-1(9),3,5-trien-8-one], which EC50 is on record?
A: 0.5 to 5 µM

Q: `O=C(c1ccc(Br)c(Cl)c1)N1CCc2c(n3nccc3n(-c3ccccc3)c2=O)C1` [Compound 5, 12-(4-bromo-3-chlorobenzoyl)-7-phenyl-2,3,7,12-tetraazatricyclo[7.4.0.0^[2,6]]trideca-1(9),3,5-trien-8-one] was tested. Which EC50 did it give?
A: 0.5 to 5 µM

Q: With `COc1ccc(-n2c(=O)c3c(n4ncc(NC(=O)C(C)C)c24)CN(C(=O)c2ccc(Cl)c(Cl)c2)CC3)cc1` [Compound 22, N-[12-(3,4-dichlorobenzoyl)-7-(4-methoxyphenyl)-8-oxo-2,3,7,12-tetrazatricyclo [7.4.0.0^2,6]trideca-1(9),3,5-trien-5-yl]-2-methyl-propanamide] as the compound, how does the EC50 read?
A: > 5 µM

From patent publication US11136321B2, “Tricyclic compounds” (ALIGOS THERAPEUTICS, INC., priority 2019, dated 2021)
